Results from PubChem BioAssay AID1053123 (Broad Institute, 2014).

What follows are compounds tested on CHO ER-LucT cells, luciferase glycosylation gel shift, 24 h (assay: inhibitors of N-linked glycosylation of luciferase, dose response, CHO ER-LucT cells, western blot, cherry-picked (AID 1053123)).
`Cc1cnc(NC(=O)c2cc(S(=O)(=O)N3CCCC3)ccc2N2CCCC2)s1` gave an AC50 of 2.52 µM.
Work on `Cc1cnc(NC(=O)c2cc(S(=O)(=O)N3CCOCC3)ccc2N2CCCC2)s1` yielded an AC50 of 0.95 µM.
`Cc1cnc(NC(=O)c2cc(S(=O)(=O)N(C)C)ccc2N2CCC2)s1` was tested, and the AC50 was 10.5 µM.
`Cc1cnc(NC(=O)c2cc(S(=O)(=O)N(C)C)ccc2N2CCCC2)s1` gave an AC50 of 7.64 µM.
In the case of `Cc1csc(NC(=O)c2cc(S(=O)(=O)N(C)C)ccc2N2CCCC2)n1`, the AC50 is reported as 0.395 µM.
